# Laboratory results published in PubChem BioAssay AID2060892 (Molecular Pharmacology Branch, DTP, NCI, 2025).
# Test system: HOP-62 complex spheroids with HUVEC/MSC, viability
# Experiment: Anticancer human tumor HOP-62 cell line growth inhibition [RAS];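 note: spheroids exposed to agents for seven days before readout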;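 for viability, T/C: 100% = DMSO vehicle control viability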
# Details: for IC50: curve of first compound; for viability, T/C: stronger effect = lower value
# In short: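 Multi-cell-type spheroids: tumor cells plus HUVEC endothelial cells and mesenchymal stem cells. RAS-pathway inhibitors were combined with targeted agents, each dosed in half-log steps down from clinical Cmax, or from 10 microM when Cmax was unknown.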
# [1] = second compound 0.0316 µM, first compound 0.0316 µM
# [2] = second compound 0.0316 µM, first compound 0.1 µM
# [3] = second compound 0.0316 µM, first compound 0.316 µM
# [4] = second compound 0.0316 µM, first compound 1 µM
# [5] = second compound 0.1 µM, first compound 0.0316 µM
# [6] = second compound 0.1 µM, first compound 0.1 µM
# [7] = second compound 0.1 µM, first compound 0.316 µM
# [8] = second compound 0.1 µM, first compound 1 µM
# [9] = second compound 0.316 µM, first compound 0.0316 µM
# [10] = second compound 0.316 µM, first compound 0.1 µM
# [11] = second compound 0.316 µM, first compound 0.316 µM
# [12] = second compound 0.316 µM, first compound 1 µM
# [13] = second compound 1 µM, first compound 0.0316 µM
# [14] = second compound 1 µM, first compound 0.1 µM
# [15] = second compound 1 µM, first compound 0.316 µM
# [16] = second compound 1 µM, first compound 1 µM
# [17] = second compound 3.16 µM, first compound 0.0316 µM
# [18] = second compound 3.16 µM, first compound 0.1 µM
# [19] = second compound 3.16 µM, first compound 0.316 µM
# [20] = second compound 3.16 µM, first compound 1 µM
# [21] = second compound 10 µM, first compound 0.0316 µM
# [22] = second compound 10 µM, first compound 0.1 µM
# [23] = second compound 10 µM, first compound 0.316 µM
# [24] = second compound 10 µM, first compound 1 µM
structure (smiles),measurement,setting,value
CCN1CCN(Cc2ccc(Nc3ncc(F)c(-c4cc(F)c5nc(C)n(C(C)C)c5c4)n3)nc2)CC1 + C#Cc1c(F)ccc2cc(O)cc(-c3ncc4c(N5CC6CCC(C5)N6)nc(OCC56CCCN5CC(F)C6)nc4c3F)c12,IC50,second compound 0.0316 µM,> 1000 nM
same,IC50,second compound 0.1 µM,> 1000 nM
same,IC50,second compound 0.316 µM,> 1000 nM
same,IC50,second compound 1 µM,> 1000 nM
same,IC50,second compound 3.16 µM,> 1000 nM
same,IC50,second compound 10 µM,< 3.16 nM
same,"viability, T/C","second compound 0.0316 µM, first compound 0.00316 µM",119%
same,"viability, T/C","second compound 0.0316 µM, first compound 0.01 µM",105%
same,"viability, T/C",[1],101%
same,"viability, T/C",[2],90.6%
same,"viability, T/C",[3],95.8%
same,"viability, T/C",[4],88.1%
same,"viability, T/C","second compound 0.1 µM, first compound 0.00316 µM",111%
same,"viability, T/C","second compound 0.1 µM, first compound 0.01 µM",103%
same,"viability, T/C",[5],89.8%
same,"viability, T/C",[6],91.6%
same,"viability, T/C",[7],89.3%
same,"viability, T/C",[8],66.2%
same,"viability, T/C","second compound 0.316 µM, first compound 0.00316 µM",109%
same,"viability, T/C","second compound 0.316 µM, first compound 0.01 µM",102%
same,"viability, T/C",[9],96.3%
same,"viability, T/C",[10],86%
same,"viability, T/C",[11],90.2%
same,"viability, T/C",[12],81.2%
same,"viability, T/C","second compound 1 µM, first compound 0.00316 µM",106%
same,"viability, T/C","second compound 1 µM, first compound 0.01 µM",99.6%
same,"viability, T/C",[13],90.7%
same,"viability, T/C",[14],82.3%
same,"viability, T/C",[15],83.2%
same,"viability, T/C",[16],67.7%
same,"viability, T/C","second compound 3.16 µM, first compound 0.00316 µM",84.5%
same,"viability, T/C","second compound 3.16 µM, first compound 0.01 µM",76%
same,"viability, T/C",[17],69%
same,"viability, T/C",[18],57.9%
same,"viability, T/C",[19],62.5%
same,"viability, T/C",[20],57.7%
same,"viability, T/C","second compound 10 µM, first compound 0.00316 µM",46.4%
same,"viability, T/C","second compound 10 µM, first compound 0.01 µM",48.3%
same,"viability, T/C",[21],38.3%
same,"viability, T/C",[22],45.7%
same,"viability, T/C",[23],45.2%
same,"viability, T/C",[24],42.5%
Cc1nc(N2CCC3(CC2)COC(C)C3N)c(CO)nc1Sc1ccnc(N)c1Cl (centres undefined) + C#Cc1c(F)ccc2cc(O)cc(-c3ncc4c(N5CC6CCC(C5)N6)nc(OCC56CCCN5CC(F)C6)nc4c3F)c12,IC50,second compound 0.0316 µM,> 10000 nM
same,IC50,second compound 0.1 µM,> 10000 nM
same,IC50,second compound 0.316 µM,3110 nM
same,IC50,second compound 1 µM,669 nM
same,IC50,second compound 3.16 µM,113 nM
same,IC50,second compound 10 µM,< 31.6 nM
same,"viability, T/C",[1],105%
same,"viability, T/C",[2],112%
same,"viability, T/C",[3],96.6%
same,"viability, T/C",[4],82.5%
same,"viability, T/C","second compound 0.0316 µM, first compound 3.16 µM",70.5%
same,"viability, T/C","second compound 0.0316 µM, first compound 10 µM",64.8%
same,"viability, T/C",[5],117%
same,"viability, T/C",[6],97.7%
same,"viability, T/C",[7],84.9%
same,"viability, T/C",[8],79.1%
same,"viability, T/C","second compound 0.1 µM, first compound 3.16 µM",67.1%
same,"viability, T/C","second compound 0.1 µM, first compound 10 µM",48.5%
same,"viability, T/C",[9],108%
same,"viability, T/C",[10],97.6%
same,"viability, T/C",[11],82.4%
same,"viability, T/C",[12],64.8%
same,"viability, T/C","second compound 0.316 µM, first compound 3.16 µM",51.1%
same,"viability, T/C","second compound 0.316 µM, first compound 10 µM",34.5%
same,"viability, T/C",[13],101%
same,"viability, T/C",[14],79.5%
same,"viability, T/C",[15],61.3%
same,"viability, T/C",[16],46.6%
same,"viability, T/C","second compound 1 µM, first compound 3.16 µM",28.1%
same,"viability, T/C","second compound 1 µM, first compound 10 µM",25.6%
same,"viability, T/C",[17],64.3%
same,"viability, T/C",[18],51.3%
same,"viability, T/C",[19],38.1%
same,"viability, T/C",[20],27.1%
same,"viability, T/C","second compound 3.16 µM, first compound 3.16 µM",16.8%
same,"viability, T/C","second compound 3.16 µM, first compound 10 µM",11.2%
same,"viability, T/C",[21],36.7%
same,"viability, T/C",[22],32.4%
same,"viability, T/C",[23],19.5%
same,"viability, T/C",[24],10.1%
same,"viability, T/C","second compound 10 µM, first compound 3.16 µM",8.04%
same,"viability, T/C","second compound 10 µM, first compound 10 µM",8.15%
